This is an account of results in US20250049776A1, “AUTOPHAGY INDUCING COMPOUNDS AND USES THEREOF, IN PARTICULAR FOR A SYSTEMIC TREATMENT OF DISEASES AND CONDITIONS” (Samsara Therapeutics Inc., priority 2021, published 2025).

Counter-ions that a name gives are not always drawn.

This data set deals with C3-PMP22 transgenic mice (B6.Cg-Tg(PMP22)C3Fbas/J). The experiment in a line: Mouse model of Charcot-Marie-Tooth 1A (CMT1A). Type of data set: in vivo. The text has this:
Compound 163 was selected as an example compound of this invention to be evaluated in this model. This model (run by In vivex SAS, France) uses C3-PMP22 transgenic mice (B6·Cg-Tg(PMP22)C3Fbas/J) which express three copies of a wild-type human peripheral myelin protein 22 (PMP22) gene. These mice present an age-dependent demyelinating neuropathy characterized by predominantly distal loss of strength and sensation. C3-PMP mice show no overt clinical signs at 3 weeks and develop mild neuromuscular impairment in an age-dependent manner. They have stable, low nerve conduction velocities similar to adults with human CMT1A. Myelination is delayed in these mice, and they contain reduced numbers of myelinated fibres at 3 weeks of age.
• Animal characteristics: • Sex/Species/Strain: B6.Cg-Tg(PMP22)C3Fbas/JMale • Age: 3 weeks old • Supplier: Jackson Laboratory (USA) • Approximate weight at initiation of treatment: 19.0 g±2.5 g • Animal number: 6 mice per group • Animal identification: At the beginning of the study, animals were identified with a number on the tail. […] Clinical signs and mortality were recorded daily. Body weight was determined twice a week. • Study Outline: • Dose: 30 mg/kg • Administration: Oral gavage • Readouts: • i) Rotarod (neuromuscular performance) • ii) Sciatic nerve electrophysiology (EMG) • iii) PMP22 analysis by western blot • iv) Histology of sciatic nerve • Experimental time duration: Readouts measures at 1 and 2 months old. • Baseline rotarod and EMG readouts at 1 month old • Rotarod and EMG readouts at 2 months old • Western blot for PMP22 and histopathology of sciatic nerve at 2 months old • Vehicle used for test Compound 163: 10% DMSO/5% Cremophor R H 40 and 85% of 10% HP-β-CD in water (v/v) • Vehicle control group: vehicle only (non-treated control) • Statistics: Statistical analyses were performed using Prism software. A probability less than 5% (p<0.05) was considered as significant.
Sciatic nerve electrophysiology. Electromyography was performed on mice anesthetized with ketamine/xylazine mixture. A pair of steel needle electrodes (AD Instruments, MLA1302) were placed subcutaneously along the nerve at the sciatic notch (proximal stimulation). A second pair of electrodes were placed along the tibial nerve above the ankle (distal stimulation). Supramaximal square-wave pulses, lasting 10 ms at 1 mA were delivered using a PowerLab 26T (AD Instruments). Compound muscle action potential (CMAP) was recorded from the intrinsic foot muscles using steel electrodes. Both amplitudes and latencies of CMAP were determined. The distance between the 2 sites of stimulation was measured alongside the skin surface with fully extended legs, and nerve conduction velocities (NCVs) were calculated automatically from sciatic nerve latency measurements using Excel.
Rotarod. A rotating rod apparatus (Bioseb, France) was used to measure neuromuscular coordination and balance. Mice were first given a pretraining trial to familiarize them with the rotating rod. […] Each animal underwent 3 trials a day. For each day, values from the 3 trials were averaged for each animal, and then averaged for each group.
After electrophysiology analysis and animal sacrifice, the left sciatic nerve of all animals were sampled, solubilized in 4° C. RIPA lysis buffer completed with protease inhibitors (Fisher Scientific, France), sonicated three times during 10 s on ice (Microson ultrasonic cell disruptorXL, Microsonic) and centrifuged for 30 min at 10,000 rpm at 4° C. 50 μL of the supernatant was sampled and total protein was quantified by NanoDrop using bovine serum albumin dilutions as standard. Then, ten micrograms of protein samples were denatured using Laemmli/β-mercaptoethanol (Merck, S3401) incubation at 95° C. during 10 minutes, separated on a denaturing 10% SDS-polyacrylamide gel and transferred onto nitrocellulose membranes. Membranes were blocked for 60 min with 5 mL of Licor Blocking Buffer. […]

Where [1] appears, read: CMT1A mice at 2 months old, 30 mg/kg oral gavage twice a day during one month.
The mark [2] stands for this setting: sciatic nerve histology, CMT1A mice at 2 months old, 30 mg/kg oral gavage twice a day.

As to `CC(C)N(C(=O)c1csc(-c2cnn(-c3ccccc3)c2)n1)C1CCNCC1` [Compound 163, N-isopropyl-2-(1-phenyl-1H-pyrazol-4-yl)-N-(piperidin-4-yl)thiazole-4-carboxamide hydrochloride], under setting [1], the “increase in CMAP amplitude compared to the vehicle group” value was found to be 86% and the “increase in mean rotarod latency compared to the vehicle group” value came out at 133%. Under “CMT1A mice at 2 months old, 30 mg/kg oral gavage twice a day, not statistically significant”, the “increase in NCV compared to the vehicle group” value is given as 94%. Besides, under “CMT1A mice, 30 mg/kg oral gavage twice a day”, the “differences on body weight between groups” value is “No significant differences”. In addition, under setting [2], the “decrease in the g-ratio compared to the vehicle group” value is 22% and the “increase in the number of myelinating axons compared to the vehicle group” value was 64%. Besides, the “increase in the axonal diameter compared to the vehicle group” value (sciatic nerve histology, CMT1A mice at 2 months old, 30 mg/kg oral gavage twice a day, not statistically significant) turned out to be 45%. Also, the “decrease in the level of PMP22 compared to the vehicle group” value (sciatic nerve western blot, CMT1A mice at 2 months old, 30 mg/kg oral gavage twice a day) was found to be 33%.
